Calls of active or inactive are those of the source. No cut-off for these calls is given here.

This assay relates to Mycobacterium tuberculosis. The assay is described as follows: Antimicrobial activity against Mycobacterium bovis BCG up to 100 uM after 24 to 48 hrs by broth microdilution method. The format is functional, organism-based. The conditions noted are these: variant bovis BCG.
On to `COc1cccnc1/C=N/NC(=O)c1ccc2c3c(ccc2c1)N1Cc2c(ccc4cc(C(=O)N/N=C/c5ncccc5OC)ccc24)N(C3)C1`, for which the outcome was inactive.

In the case of `Cc1ccc(O)c(/C=N/NC(=O)c2ccc3c4c(ccc3c2)N2Cc3c(ccc5cc(C(=O)N/N=C/c6cc(C)ccc6O)ccc35)N(C4)C2)c1`, the outcome was inactive.

Consider `O=C(N/N=C/c1cc(Cl)ccc1O)c1ccc2c3c(ccc2c1)N1Cc2c(ccc4cc(C(=O)N/N=C/c5cc(Cl)ccc5O)ccc24)N(C3)C1`, for which the outcome was inactive.

`O=C(NN=C(c1ccccn1)c1ccccn1)c1ccc2c3c(ccc2c1)N1Cc2c(ccc4cc(C(=O)NN=C(c5ccccn5)c5ccccn5)ccc24)N(C3)C1`: the result was inactive.

Regarding `COC(=O)c1ccc(O)c(/C=N/NC(=O)c2ccc3c4c(ccc3c2)N2Cc3c(ccc5cc(C(=O)N/N=C/c6cc(C(=O)OC)ccc6O)ccc35)N(C4)C2)c1`, the outcome was inactive.

With `O=C(N/N=C/c1nccc2ccccc12)c1ccc2c3c(ccc2c1)N1Cc2c(ccc4cc(C(=O)N/N=C/c5nccc6ccccc56)ccc24)N(C3)C1`, the result was inactive.

In the case of `O=C(N/N=C/c1cc([N+](=O)[O-])ccc1O)c1ccc2c3c(ccc2c1)N1Cc2c(ccc4cc(C(=O)N/N=C/c5cc([N+](=O)[O-])ccc5O)ccc24)N(C3)C1`, the result was inactive.

Turning to `O=C(N/N=C/c1ccccc1O)c1ccc2c3c(ccc2c1)N1Cc2c(ccc4cc(C(=O)N/N=C/c5ccccc5O)ccc24)N(C3)C1`, the result was inactive.

Turning to `COc1ccc(O)c(/C=N/NC(=O)c2ccc3c4c(ccc3c2)N2Cc3c(ccc5cc(C(=O)N/N=C/c6cc(OC)ccc6O)ccc35)N(C4)C2)c1`, the outcome was inactive.

In the case of `O=C(N/N=C/c1cc(F)ccc1O)c1ccc2c3c(ccc2c1)N1Cc2c(ccc4cc(C(=O)N/N=C/c5cc(F)ccc5O)ccc24)N(C3)C1`, the outcome was inactive.

For the compound `O=C(N/N=C/c1cc(O)ccc1O)c1ccc2c3c(ccc2c1)N1Cc2c(ccc4cc(C(=O)N/N=C/c5cc(O)ccc5O)ccc24)N(C3)C1`, the outcome was inactive.

For the origin of these results see ChEMBL document CHEMBL3400013, “Synthesis and biological activity evaluation of hydrazone derivatives based on a Tröger's base skeleton” (Bioorg Med Chem, 2015).
